According to EP4635954A1, “INDUCER FOR INDUCING MESENCHYMAL-EPITHELIAL TRANSITION AND REPROGRAMMING” (Iregene Therapeutics Co., Ltd, priority 2022, dated 2024):

Target: miR-145
Test: Isothermal titration calorimetry (ITC), Nano-ITC
Format: binding
Settings: Multiple Sites model, 50 µM miR-145 in cell, 500 µM ligand in syringe
Excerpt: Isothermal titration calorimetry (ITC) operates based on the principle of power compensation and allows accurate determination of the enthalpy change associated with molecular interactions across a broad concentration range using a single titration experiment. It measures the heat change upon binding and provides a complete thermodynamic profile of nucleic acid-ligand interactions. Quantitative thermodynamic characterization of the complex is essential for understanding the molecular basis of the interaction between the microRNA miR-145 and the small molecule compound. In this invention, the Nano-ITC calorimeter from Waters Corporation was used to validate in vitro the interaction between nucleic acid and small molecule compounds. The experimental procedure involved placing 300 µL of singlestranded miR-145 solution at a concentration of 50 µM into a temperature-controlled sample cell, which was thermally coupled via a thermocouple circuit to a reference cell containing an equal volume of deionized water. As an example, the small molecule A-3-6 was prepared at a concentration of 500 µM and a volume of 50 µL, and loaded into the injection syringe as the ligand. The heat change in the sample cell was measured and balanced against the reference cell, appearing as either endothermic or exothermic peaks. […]

Kd (site with nSite 1.8): 7.54 nM
Kd (site with nSite 3): 70.2 nM
SMILES: O=C(Cc1ccccc1)Nc1cc2cc[nH]c2cn1 [Compound A-3-6, 2-Phenyl-N-(1H-pyrrolo[2,3-c]pyridin-5-yl)acetamide]
